Source: US20260028337A1, “COMPOUND FOR INHIBITING IRAK4 ACTIVITY AND USE THEREOF” (SHENZHEN ZHONGGE BIOLOGICAL TECHNOLOGY CO., LTD., priority 2022, published 2026)
Counter-ions that a name gives are not always drawn.

Molecular target: IRAK4 kinase (Homo sapiens (Human), UniProt Q9NWZ3)
Assay: IRAK4 Kinase Inhibition Assay (Cisbio HTRF KinEASE-STK S1 kit)
Format: biochemical
Conditions: IRAK4 kinase protein 10 nM, ATP 200 μM, STK Substrate 1-biotin 1 μM, 37° C. 2 h, read-out: IC50 (nM), IRAK4 kinase inhibitory activity
Experimental: Test Example 1. IRAK4 Kinase Inhibition Assay
In this assay, Cisbio HTRF KinEASE-STK SI kit (62S 1 PEB) was used, in which assay/detection buffer, STK Substrate 1-biotin, Streptavidin-XL665, STK Antibody-Cryptate were contained.
After adding compound/DMSO to a 384-well plate (PerkinElmer 6008280) using Echo 665, 5 μL of 2-fold reaction concentration of IRAK4 kinase protein (final concentration: 10 nM) dissolved with assay buffer [1 volume of 5× kinase buffer+20 mM magnesium chloride (Sigma) solution+1 mM DTT (Alfa Aesar) solution+4 volumes deionized water] was added, followed by sealing the shallow well plate, shaking and then centrifuging at 1000 rpm for 1 min, and incubating at room temperature for 5 min; then 5 μL of 2-fold reaction concentration of a 1:1 mixture of STK Substrate 1-biotin (final concentration: 1 μM) and ATP (Sigma A1852) (final concentration: 200 μM) formulated with assay buffer was added, followed by sealing the shallow well plate, shaking and then centrifuging at 1000 rpm for 1 min, and incubating at 37° C. for 2 h, and then 10 μL of a 1:1 mixture of Streptavidin-XL665 (final concentration: 62.5 nM) and STK-antibody-cryptate dissolved with detection buffer was added, followed by sealing the shallow well plate, shaking and then centrifuging at 1000 rpm for 1 min, and incubating at room temperature for 1 h, and thereafter reading the value at the wavelength of 620 nm/665 nm using a microplate reader. The data were analyzed using Prism 9.3 software, and the IC50 value of IRAK4 kinase inhibition was fitted using a four parameter Logistic equation.

IRAK4 kinase, sequence (Q9NWZ3 whole entry): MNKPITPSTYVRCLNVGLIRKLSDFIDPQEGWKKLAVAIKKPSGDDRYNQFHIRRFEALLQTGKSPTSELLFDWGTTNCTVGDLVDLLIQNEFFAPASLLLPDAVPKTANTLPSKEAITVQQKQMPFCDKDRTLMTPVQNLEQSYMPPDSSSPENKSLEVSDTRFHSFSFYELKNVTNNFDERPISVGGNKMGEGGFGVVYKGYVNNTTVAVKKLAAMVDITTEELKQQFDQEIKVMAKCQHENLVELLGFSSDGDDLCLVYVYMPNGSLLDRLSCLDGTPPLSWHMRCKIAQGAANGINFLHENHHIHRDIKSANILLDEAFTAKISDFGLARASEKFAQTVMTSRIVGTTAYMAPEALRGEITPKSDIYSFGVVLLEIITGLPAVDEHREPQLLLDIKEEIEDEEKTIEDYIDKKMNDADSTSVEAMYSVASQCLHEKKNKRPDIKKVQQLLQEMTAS

SMILES | IC50 [nM]
FC(F)c1nn(C2CCCCC2)cc1-n1cc(-c2cnn3ccc(N4C[C@H]5C[C@@H]4CO5)nc23)nn1 [Compound 1A, (1R,4R)-5-(3-(1-(1-cyclohexyl-3-(difluoromethyl)-1H-pyrazol-4-yl)-1H-1,2,3-triazol-4-yl]pyrazolo[1,5-a]pyrimidin-5-yl)-2-oxa-5-azabicyclo[2.2.1]heptane] | 100 to 1000
N#Cc1cnc2c(-c3cn(-c4cn(C5CCCCC5)nc4C(F)F)nn3)cnn2c1 [Compound 3A, 3-(1-(1-cyclohexyl-3-(difluoromethyl)-1H-pyrazol-4-yl)-1H-1,2,3-triazol-4-yl) pyrazolo[1,5-a]pyrimidine-6-carbonitrile] | 100 to 1000
N#Cc1cnc2c(ccn2-c2cn(-c3cn(C4CCCCC4)nc3C(F)F)nn2)c1 [Compound 43A, 1-(1-(1-cyclohexyl-3-(difluoromethyl)-1H-pyrazol-4-yl)-1H-1,2,3-triazol-4-yl]-1H-pyrrolo[2,3-b]pyridine-5-carbonitrile] | 1000 to 5000
FC(F)c1nn(C2CCCCC2)cc1-n1cc(-n2ccc3ccc(N4CCOCC4)nc32)nn1 [Compound 45A] | 1000 to 5000
Cn1cc(-n2cc(-c3cnn4ccc(N5C[C@H]6C[C@@H]5CO6)nc34)nn2)c(C(F)F)n1 [Compound 46A] | 1000 to 5000
FC(F)c1nn(C2CCCCC2)cc1-n1cc(-c2cnn3cccnc23)nn1 [Compound 56A, 3-(1-(1-cyclohexyl-3-(difluoromethyl)-1H-pyrazol-4-yl)-1H-1,2,3-triazol-4-yl]pyrazolo[1,5-a]pyrimidine] | 1000 to 5000
NC(=O)c1cnn2c(-c3cn(-c4cn(C5CCCCC5)nc4C(F)F)nn3)ccc2c1 [Compound 60A, 7-(1-(1-cyclohexyl-3-(difluoromethyl)-1H-pyrazol-4-yl)-1H-1,2,3-triazol-4-yl) pyrrolo[1,2-b]pyridazine-3-formamide] | < 100
O=C(O)c1cnn2c(-c3cn(-c4cn(C5CCCCC5)nc4C(F)F)nn3)ccc2c1 [Compound 61A, 7-(1-(1-cyclohexyl-3-(difluoromethyl)-1H-pyrazol-4-yl)-1H-1,2,3-triazol-4-yl]pyrrolo[1,2-b]pyridazine-3-carboxylic acid] | 100 to 1000
O=C(c1cnn2c(-c3cn(-c4cn(C5CCCCC5)nc4C(F)F)nn3)ccc2c1)N1CCNCC1 [Compound 64A, (7-(1-(1-cyclohexyl-3-(difluoromethyl)-1H-pyrazol-4-yl)-1H-1,2,3-triazol-4-yl]pyrrolo[1,2-b]pyridazin-3-yl) (piperazin-1-yl) methanone] | 1000 to 5000
NC(=O)c1cnc2c(ccn2-c2cn(-c3cn(C4CCCCC4)nc3C(F)F)nn2)c1 [Compound 65A, 1-(1-(1-cyclohexyl-3-(difluoromethyl)-1H-pyrazol-4-yl)-1H-1,2,3-triazol-4-yl)-1H-pyrrolo[2,3-b]pyridine-5-formamide] | 100 to 1000
O=C(O)c1cnc2c(ccn2-c2cn(-c3cn(C4CCCCC4)nc3C(F)F)nn2)c1 [Compound 66A, 1-(1-(1-cyclohexyl-3-(difluoromethyl)-1H-pyrazol-4-yl)-1H-1,2,3-triazol-4-yl)-1H-pyrrolo[2,3-b]pyridine-5-carboxylic acid] | 1000 to 5000
O=C(NC1CCNC1)c1cnn2c(-c3cn(-c4cn(C5CCCCC5)nc4C(F)F)nn3)ccc2c1 (stereo not drawn) [Compound 67A, 7-(1-(1-cyclohexyl-3-(difluoromethyl)-1H-pyrazol-4-yl)-1H-1,2,3-triazol-4-yl]-N-(pyrrolidin-3-yl)pyrrolo[1,2-b]pyridazine-3-formamide] | > 5000
O=C(NC1CNCC1(F)F)c1cnn2c(-c3cn(-c4cn(C5CCCCC5)nc4C(F)F)nn3)ccc2c1 (stereo not drawn) [Compound 68A, 7-(1-(1-cyclohexyl-3-(difluoromethyl)-1H-pyrazol-4-yl)-1H-1,2,3-triazol-4-yl]-N-(4,4-difluoropyrrolidin-3-yl)pyrrolo[1,2-b]pyridazine-3-formamide] | 1000 to 5000
C[C@H]1COCCN1c1ccn2ncc(-c3cn(-c4cn(C5CCCCC5)nc4C(F)F)nn3)c2n1 [Compound 82A, (S)-4-(3-(1-(1-cyclohexyl-3-(difluoromethyl)-1H-pyrazol-4-yl)-1H-1,2,3-triazol-4-yl]pyrazolo[1,5-a]pyrimidin-5-yl)-3-methylmorpholine] | 100 to 1000
NC(=O)c1cnn2c(-c3cn(-c4cn(C5CCNCC5)nc4C(F)F)nn3)ccc2c1 [Compound 84A, 7-(1-(3-(difluoromethyl)-1-(piperidin-4-yl)-1H-pyrazol-4-yl)-1H-1,2,3-triazol-4-yl)pyrrolo[1,2-b]pyridazine-3-formamide] | 100 to 1000

The remaining lines, values ahead:

IC50 [nM] | SMILES
< 100 | FC(F)c1nn(C2CCCCC2)cc1-n1cc(-c2cnn3ccc(N4CCOCC4)nc23)nn1 [Compound 4A, 4-(3-(1-(1-cyclohexyl-3-(difluoromethyl)-1H-pyrazol-4-yl)-1H-1,2,3-triazol-4-yl)pyrazolo[1,5-a]pyrimidin-5-yl) morpholine]
100 to 1000 | FC(F)c1nn(C2CCNCC2)cc1-n1cc(-c2cnn3ccc(N4CCOCC4)nc23)nn1 [Compound 69A, 4-(3-(1-(3-(difluoromethyl)-1-(piperidin-4-yl)-1H-pyrazol-4-yl)-1,2,3-triazol-4-yl]pyrazolo[1,5-a]pyrimidin-5-yl) morpholine]
< 100 | C[C@@H]1C[C@@H](n2cc(-n3cc(-c4cnn5ccc(N6CCOCC6)nc45)nn3)c(C(F)F)n2)CCN1 [Compound 72A]
100 to 1000 | C[C@@H]1C[C@H](n2cc(-n3cc(-c4cnn5ccc(N6CCOCC6)nc45)nn3)c(C(F)F)n2)CCN1 [Compound 73A]
100 to 1000 | C[C@H]1CC(n2cc(-n3cc(-c4cnn5ccc(N6CCOCC6)nc45)nn3)c(C(F)F)n2)CCN1 (stereo partly drawn) [Compound 79A, 4-(3-(1-(3-(difluoromethyl)-1-((2S)-2-methylpiperidin-4-yl)-1H-pyrazol-4-yl)-1,2,3-triazol-4-yl)pyrazolo[1,5-a]pyrimidin-5-yl) morpholine]
100 to 1000 | C[C@@H]1CC(n2cc(-n3cc(-c4cnn5ccc(N6CCOCC6)nc45)nn3)c(C(F)F)n2)CCN1 (stereo partly drawn) [Compound 80A, 4-(3-(3-difluoromethyl)-1-(2R)-2-methylpiperidin-4-yl)-1H-pyrazol-4-yl)-1H-1,2,3-triazol-4-yl)pyrazolo[1,5-a]pyrimidin-5-yl) morpholine hydrochloride]
100 to 1000 | C[C@H]1CN(c2ccn3ncc(-c4cn(-c5cn(C6CCCCC6)nc5C(F)F)nn4)c3n2)CCO1 [Compound 83A, (2S)-4-(3-{1-[1-cyclohexyl-3-(difluoromethyl)-1H-pyrazol-4-yl]-1H-1,2,3-triazol-4-yl}pyrazolo[1,5-a]pyrimidin-5-yl)-2-methylmorpholine]
< 100 | CC1(C)CC(n2cc(-n3cc(-c4cnn5ccc(N6CCOCC6)nc45)nn3)c(C(F)F)n2)CCN1 (stereo not drawn) [Compound 85A, 4-(3-(1-(3-(difluoromethyl)-1-(2,2-dimethylpiperidin-4-yl)-1H-pyrazol-4-yl)-1,2,3-triazol-4-yl]pyrazolo[1,5-a]pyrimidin-5-yl) morpholine]
100 to 1000 | CC1(C)C[C@H](n2cc(-n3cc(-c4cnn5ccc(N6CCOCC6)nc45)nn3)c(C(F)F)n2)CCN1 [Compound 86A, (R)-4-(3-(1-(3-(difluoromethyl)-1-(2,2-dimethylpiperidin-4-yl)-1H-pyrazol-4-yl)-1,2,3-triazol-4-yl]pyrazolo[1,5-a]pyrimidin-5-yl) morpholine]
